For this assay, the target named is human GPR43 (Homo sapiens (Human), UniProt O15552). As to the kind of experiment: Ca-Flux functional assay: determination of agonist/positive allosteric modulator (PAM) activity. It counts as cell-based. As to conditions: CHO-K1 Gα16 cells stably expressing human GPR43; compound added with EC20 sodium acetate; intracellular Ca2+ by FLIPR; does not distinguish agonist from PAM. The method in brief: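 Agonist or PAM activity read as intracellular Ca2+ rise by FLIPR after adding compound plus EC20 acetate, acetate EC20 set from a prior curve. Cells: CHO-K1 Gα16 with stable human GPR43. EC50 from ten-point half-log curves starting 10 μM.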
Sequence of human GPR43 (O15552 whole entry): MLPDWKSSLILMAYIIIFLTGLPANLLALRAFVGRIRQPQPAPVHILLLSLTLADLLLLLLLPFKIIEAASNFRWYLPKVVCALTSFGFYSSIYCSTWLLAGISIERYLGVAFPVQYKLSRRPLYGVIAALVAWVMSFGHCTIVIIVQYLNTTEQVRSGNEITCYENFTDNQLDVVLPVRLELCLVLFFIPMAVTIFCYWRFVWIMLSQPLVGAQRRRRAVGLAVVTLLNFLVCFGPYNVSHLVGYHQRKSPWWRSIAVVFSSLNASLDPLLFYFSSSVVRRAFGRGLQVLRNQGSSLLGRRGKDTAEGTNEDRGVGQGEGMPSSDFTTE

Broadly, the EC50 is the concentration needed to bring the measured effect to its halfway point. Regarding `Cc1nc(OC2CCOC(C)(C)C2)c2[nH]c(N)c(S(=O)(=O)c3ccccc3F)c2n1` (stereo not shown) [Example 273, -[(2,2-dimethyloxan-4-yl)oxy]-7-(2-fluorobenzenesulfonyl)-2-methyl-5H-pyrrolo[3,2-d]pyrimidin-6-amine], the EC50 amounted to 63 nM.

(Values after US10059713B2 (Takeda Pharmaceutical Company Limited, priority 2014, dated 2018).)
